Measured values published in patent publication US11420944B2, “Voltage-dependent t-type calcium channel blocker” (Nippon Chemiphar Co., Ltd., priority 2016, dated 2022).
Where two headings read alike, the source gives them in different places.

Columns and labels:
human Cav3.2 channels [1] = target: T1, human Cav3.2 channels (Homo sapiens, UniProt O95180); assay: Electrophysiological evaluation, whole-cell patch-clamp with automatic patch-clamp system; assay type: cell-based; details: for inhibition at 0.3 µM: holding potential −80 mV, read-out: Cav3.2 channel current inhibition ratio at 0.3 μM of test compound (holding potential −80 mV)
T1 construct: expressed in transfected cells; host or cells: HEK293 cells (ATCC No. CRL-1573), plasmid pcDNA3.1(+)
Summary of the method: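 Stable human Cav3.2 cell line, automated whole-cell patch clamp at room temperature. Peak inward current on 100 msec steps to −20 mV every 10 sec; five concentrations applied cumulatively by perfusion. Inhibition scored at 0.3 μM compound from −80 mV holding, or 3 μM from −100 mV.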

human Cav3.2 channels [2] = target: T1, human Cav3.2 channels; assay: Intracellular calcium concentration measurement (Fluo-4 AM) in stable cells expressing human Cav3.2 channels, buffer A / buffer B; assay type: cell-based
Summary of the method: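 HEK293 cells stably expressing human Cav3.2, Fluo-4 loaded, preincubated 15 min at room temperature with compound (0.1% DMSO final) in buffer A (K+ equilibrium −92 mV) or B (−110 mV). After ionophore, KCl (83.8 or 91.8 mM) stimulus; 10 s fluorescence rise (ex 485/em 510 nm) gave % inhibition and IC50.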

[3] = system: mouse partial sciatic nerve ligation (PSNL) model; assay: Mechanical allodynia in a mouse partial sciatic nerve ligation (PSNL) model, intraperitoneal administration; assay type: in vivo; details: intraperitoneally administered, 20 to 30 mg/kg, compared to the vehicle group
Protocol: Mechanical Allodynia in a Mouse Partial Sciatic Nerve Ligation (PSNL) Model
(§1) Production of a mouse PSNL model was carried out according to the method of Seltzer, et al. A mouse was subjected to inhalation anesthesia with isoflurane. The femoral region of the mouse was shaved and disinfected with isodine. The skin on the thighbone of the mouse was incised, the fascia underneath the skin was cut, and the biceps femoris muscle was divided at a site between the heads of muscles. The sciatic nerve underneath the incision was checked, and then the sciatic nerve was detached without damaging the nerve. The needle of an 8-0 silk suture with a needle was passed through the sciatic nerve so as to penetrate through the nerve, and thus a portion of about ½ to ⅓ of the sciatic nerve was ligated. The skin was sutured, and the mouse was kept for about 7 days. The surgery of a Sham control mouse was performed only for checking of the sciatic nerve, and the skin was sutured.
(§2) The measurement of pain threshold was carried out after the mouse was transferred into a cage for measurement and was waited until exploratory behavior had disappeared. […] The 50% threshold was calculated by an up-down method by referring to the method of Chaplan, et al. (Quantitative assessment of tactile allodynia in the […]. J Neurosci Methods, 53, 1994, 55-63). […]

CYP3A4 = target: T2, CYP3A4 (Homo sapiens, UniProt P08684); assay: Evaluation of CYP3A4 activity inhibitory action; assay type: in vitro ADME; details: Human CYP3A4BR EasyCYP Bactosomes, 7-Benzyloxy-4-(trifluoromethyl)-coumarin
T2 construct: purchased Cypex, Ltd; host or cells: E. coli membranes (Bactosomes)
Protocol: Evaluation of CYP3A4 Activity Inhibitory Action
To a 50 mM potassium phosphate buffer solution (pH 7.4), 5 nM Human CYP3A4BR EasyCYP Bactosomes (Cypex, Ltd.), 50 μM 7-Benzyloxy-4-(trifluoromethyl)-coumarin, cofactor mix (0.0081 mM β-NADP^+, 0.4 mM G-6-P, 0.4 mM MgCl2, and 0.2 U/mL G-6-P DH(Y)), and 0.01% Pluronic F-127 were added, and the mixture was incubated for 45 minutes at 37° C. The reaction was initiated by adding the cofactor mix. After the incubation, 0.5 M Tris base/acetonitrile (20:80) was added thereto as a reaction terminating liquid, and the resulting mixture was stirred. Subsequently, the fluorescence intensity (excitation: 405 nm, emission: 535 nm) was measured. The reaction was carried out in duplicate. The results are presented as the inhibition rate at 10 μM of the test compound.

mouse PSNL model = assay: Mechanical allodynia in mouse PSNL model, peroral administration; assay type: in vivo; details: perorally administered, 10 mg/kg and 30 mg/kg, compared to the vehicle group
Protocol: Mechanical Allodynia in Mouse PSNL Model
as §1, §2

T1 sequence (O95180 whole entry): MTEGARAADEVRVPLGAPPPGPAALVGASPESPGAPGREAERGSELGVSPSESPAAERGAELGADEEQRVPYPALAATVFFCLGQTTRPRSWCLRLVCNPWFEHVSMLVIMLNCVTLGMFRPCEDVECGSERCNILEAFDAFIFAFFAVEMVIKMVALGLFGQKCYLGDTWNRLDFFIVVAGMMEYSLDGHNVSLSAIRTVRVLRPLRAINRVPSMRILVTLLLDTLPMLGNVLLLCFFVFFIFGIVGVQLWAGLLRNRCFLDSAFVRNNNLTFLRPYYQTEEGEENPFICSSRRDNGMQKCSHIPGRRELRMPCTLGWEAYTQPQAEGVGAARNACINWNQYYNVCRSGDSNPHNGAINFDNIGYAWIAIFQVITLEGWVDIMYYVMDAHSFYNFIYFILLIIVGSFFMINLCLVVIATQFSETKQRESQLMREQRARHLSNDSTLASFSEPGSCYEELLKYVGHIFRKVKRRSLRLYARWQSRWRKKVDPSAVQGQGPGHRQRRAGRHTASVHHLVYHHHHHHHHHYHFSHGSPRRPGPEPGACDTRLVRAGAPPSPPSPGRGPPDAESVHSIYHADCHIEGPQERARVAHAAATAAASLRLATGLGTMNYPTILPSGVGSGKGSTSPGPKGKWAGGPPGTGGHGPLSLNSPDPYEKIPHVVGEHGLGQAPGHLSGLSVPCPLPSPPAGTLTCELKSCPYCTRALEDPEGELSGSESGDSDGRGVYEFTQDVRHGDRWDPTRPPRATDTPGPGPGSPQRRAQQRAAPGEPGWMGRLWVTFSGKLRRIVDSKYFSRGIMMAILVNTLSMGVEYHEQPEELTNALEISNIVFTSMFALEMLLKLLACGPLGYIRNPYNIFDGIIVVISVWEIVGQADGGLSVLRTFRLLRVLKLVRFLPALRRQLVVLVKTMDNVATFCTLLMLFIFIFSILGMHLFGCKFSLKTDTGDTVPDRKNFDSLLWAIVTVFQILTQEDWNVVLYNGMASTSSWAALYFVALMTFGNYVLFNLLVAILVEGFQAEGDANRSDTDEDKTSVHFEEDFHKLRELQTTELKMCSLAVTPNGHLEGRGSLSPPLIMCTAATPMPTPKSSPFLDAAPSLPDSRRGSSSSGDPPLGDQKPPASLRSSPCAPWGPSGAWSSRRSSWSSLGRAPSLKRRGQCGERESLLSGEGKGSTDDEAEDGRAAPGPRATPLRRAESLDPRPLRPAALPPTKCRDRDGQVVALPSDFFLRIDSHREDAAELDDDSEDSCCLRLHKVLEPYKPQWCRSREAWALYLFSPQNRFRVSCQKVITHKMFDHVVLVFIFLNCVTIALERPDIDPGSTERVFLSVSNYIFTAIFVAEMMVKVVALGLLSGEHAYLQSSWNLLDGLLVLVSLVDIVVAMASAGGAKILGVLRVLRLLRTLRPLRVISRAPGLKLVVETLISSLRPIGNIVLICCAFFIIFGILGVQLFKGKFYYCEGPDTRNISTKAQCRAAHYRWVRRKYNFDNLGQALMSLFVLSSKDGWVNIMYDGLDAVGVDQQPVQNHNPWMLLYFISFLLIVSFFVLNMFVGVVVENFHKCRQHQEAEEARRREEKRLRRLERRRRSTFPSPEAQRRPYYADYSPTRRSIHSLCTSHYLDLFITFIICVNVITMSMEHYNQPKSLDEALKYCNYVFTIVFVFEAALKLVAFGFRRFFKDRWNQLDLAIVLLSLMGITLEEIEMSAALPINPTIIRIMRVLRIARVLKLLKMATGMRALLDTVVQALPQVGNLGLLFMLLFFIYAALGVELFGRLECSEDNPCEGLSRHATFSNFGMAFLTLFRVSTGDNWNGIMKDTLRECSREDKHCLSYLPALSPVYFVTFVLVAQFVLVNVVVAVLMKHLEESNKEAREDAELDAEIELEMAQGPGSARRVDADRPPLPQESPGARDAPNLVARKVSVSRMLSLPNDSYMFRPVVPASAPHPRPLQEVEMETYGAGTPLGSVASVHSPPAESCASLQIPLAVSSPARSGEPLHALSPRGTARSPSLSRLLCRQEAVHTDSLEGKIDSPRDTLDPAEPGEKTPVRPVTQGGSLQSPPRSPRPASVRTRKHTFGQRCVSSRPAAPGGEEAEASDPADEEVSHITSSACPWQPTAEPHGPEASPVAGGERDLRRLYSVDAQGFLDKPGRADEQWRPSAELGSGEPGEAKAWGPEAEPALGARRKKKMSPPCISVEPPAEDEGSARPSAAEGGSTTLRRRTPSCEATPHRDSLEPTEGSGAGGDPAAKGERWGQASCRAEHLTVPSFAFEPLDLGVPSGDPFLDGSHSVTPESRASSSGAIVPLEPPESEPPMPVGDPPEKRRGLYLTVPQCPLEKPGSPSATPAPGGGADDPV
T2 sequence (P08684 whole entry): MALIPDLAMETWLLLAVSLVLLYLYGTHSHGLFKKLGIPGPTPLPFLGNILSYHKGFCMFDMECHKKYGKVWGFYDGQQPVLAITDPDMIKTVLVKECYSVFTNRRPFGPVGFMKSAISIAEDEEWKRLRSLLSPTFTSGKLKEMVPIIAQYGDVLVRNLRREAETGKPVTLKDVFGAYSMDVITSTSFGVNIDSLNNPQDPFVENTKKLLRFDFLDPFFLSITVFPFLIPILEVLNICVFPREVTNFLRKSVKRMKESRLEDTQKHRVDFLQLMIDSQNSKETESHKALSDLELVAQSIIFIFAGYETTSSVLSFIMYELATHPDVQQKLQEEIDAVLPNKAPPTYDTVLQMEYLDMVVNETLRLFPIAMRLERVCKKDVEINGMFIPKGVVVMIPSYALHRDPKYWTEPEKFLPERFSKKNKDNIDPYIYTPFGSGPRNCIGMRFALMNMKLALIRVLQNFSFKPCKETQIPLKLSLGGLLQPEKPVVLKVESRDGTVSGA

| Structure (SMILES) | inhibition at 0.3 µM (human Cav3.2 channels [1]) [%] | Cav3.2 channel current inhibition ratio at 3 μM of test compound (holding potential −100 mV) (human Cav3.2 channels [1]) [%] | IC50 (human Cav3.2 channels [2]; Table 1, buffer A, equilibrium potential of potassium −92 mV, read-out: Inhibitory action of buffer A (inactivated state)) [nM] | IC50 (human Cav3.2 channels [2]; Table 1, buffer B, equilibrium potential of potassium −110 mV, read-out: Inhibitory action of buffer B (resting state or closed state)) [nM] | mechanical allodynia (pain threshold, von Frey filament test) [3] | CYP3A4 activity inhibition ratio at 10 μM of test compound (CYP3A4) [%] | IC50 (human Cav3.2 channels [2]; Tables 2 to 6, buffer A, equilibrium potential of potassium −92 mV, read-out: Inhibitory action of buffer A (inactivated state)) [nM] | mechanical allodynia (pain threshold, von Frey filament test) (mouse PSNL model) |
| --- | --- | --- | --- | --- | --- | --- | --- | --- |
| C[C@@H](NC(=O)C1CC1c1nc2ccccc2[nH]1)c1ccc(OCC(F)(F)F)s1 (single isomer, unassigned) [Example 3A] | 60 | 13 | ≤ 100 | > 10000 | suppressed mechanical allodynia statistically significantly | 12.7 | – | – |
| C[C@@H](NC(=O)[C@H]1C[C@@H]1c1nc2ccccc2[nH]1)c1cc2cc(F)ccc2o1 [Example 65, (1S,2S)-2-(1H-benzo[d]imidazol-2-yl)-N—((R)-1-(5-fluorobenzofuran-2-yl)ethyl)cyclopropane-1-carboxamide] | 81 | 49 | – | – | – | 4.2 | ≤ 100 | suppressed mechanical allodynia statistically significantly |
